From patent US9296741B2, “Bromodomain inhibitors” (priority 2012, dated 2016) come the findings set out here.

In data set [1] the target is human BRD4 second bromodomain (BDII_E352-M457) (Homo sapiens (Human), UniProt O60885). Kind of data set: TR-FRET bromodomain binding assay, BRD4 second bromodomain.
The target of data set [2] is human BRD4 first bromodomain (BDI_K57-E168) (Homo sapiens (Human), UniProt O60885). As to the kind of experiment: TR-FRET bromodomain binding assay, BRD4 first bromodomain. For orientation: In TR-FRET formats the signal depends on donor and acceptor labels being close together.
Data set [3] in a line: Human liver microsome stability assay. The data set is classed as in vitro ADME. The following applies: both sexes, human, microsomes, pH 7.4. On the technique in general: Microsomes from liver hold many membrane-bound enzymes, among them those of drug oxidation.
Data set [4] can be described thus: Rat liver microsome stability assay. The data set is classed as in vitro ADME. Particulars: rat liver microsomes (male Sprague-Dawley), 0.5 μM test compound, pH 7.4, 37° C.; for half-life at 0.5 μM: 0.25 mg/mL microsomal protein, read-out: Stability in rat liver microsomes (t1/2 in minutes).
Data set [5] deals with breast cancer cell line MX-1. As to the kind of experiment: MX-1 cell line proliferation assay. The data set is classed as cell-based, human. The following applies: Homo sapiens, MX1, 72 h; MX-1 cells, 3-day proliferation, Cell Titer Glo; read-out: Cellular proliferation: EC50. In general terms: In ATP-based viability assays light output follows the ATP content of the culture.

Data set [6] can be described thus: Mouse liver microsome stability assay. The data set is classed as in vitro ADME. Particulars: male, CD1, mouse, microsomes, pH 7.4.

For the compound `CCCS(=O)(=O)Nc1ccc(OC2CCOCC2)c(-c2cn(C)c(=O)c3[nH]ccc23)c1` [Example 99, N-[3-(6-methyl-7-oxo-6,7-dihydro-1H-pyrrolo[2,3-c]pyridin-4-yl)-4-(tetrahydro-2H-pyran-4-yloxy)phenyl]propane-1-sulfonamide], the values for the Ki in data set [1] and in data set [2] were 24.7 nM and 3.5 nM, respectively. In addition, the half-life at 0.5 μM in data set [3] was above 120 min; in data set [4], 22 min; in data set [6], 35 min. For the same compound, the EC50 in data set [5] came out at 97.7 nM.
On to `CCS(=O)(=O)Nc1ccc(OCc2ccnn2C)c(-c2cn(C)c(=O)c3[nH]ccc23)c1` [Example 142, N-{3-(6-methyl-7-oxo-6,7-dihydro-1H-pyrrolo[2,3-c]pyridin-4-yl)-4-[(1-methyl-1H-pyrazol-5-yl)methoxy]phenyl}ethanesulfonamide], for which the inhibition constant Ki – broadly, the dissociation constant of the complex between target and ligand, obtained from inhibition or displacement – in data set [1] was 79.4 nM; in data set [2], 6.5 nM. Besides, the figures for the half-life at 0.5 μM in data set [3], in data set [4] and in data set [6] were 112 min, 35 min and 32 min, respectively. The EC50 in data set [5] came to 138 nM.
Regarding `Cn1cc(-c2cc(NS(C)(=O)=O)cnc2Oc2ccccc2)c2cc[nH]c2c1=O` [Example 23, N-[5-(6-methyl-7-oxo-6,7-dihydro-1H-pyrrolo[2,3-c]pyridin-4-yl)-6-phenoxypyridin-3-yl]methanesulfonamide], the inhibitory constant (Ki) in data set [1] is 0.75 nM; in data set [2], 1.2 nM. Also, the half-life at 0.5 μM is 64 min in data set [3], 11 min in data set [4] and above 120 min in data set [6]. Moreover, the EC50 in data set [5] came out at 45.9 nM.
Consider `Cn1cc(-c2cc(S(=O)(=O)N3CCc4ccccc43)ccc2OCC2CC2)c2cc[nH]c2c1=O` [Example 305, 4-[2-(cyclopropylmethoxy)-5-(2,3-dihydro-1H-indol-1-ylsulfonyl)phenyl]-6-methyl-1,6-dihydro-7H-pyrrolo[2,3-c]pyridin-7-one], for which the inhibition constant (Ki) came out at 25.7 nM in data set [1] and 327 nM in data set [2]. Also, the half-life at 0.5 μM was found to be 1 min in data set [3], 2 min in data set [4] and 2 min in data set [6]. The EC50 in data set [5] is 110 nM.
With `Cn1cc(-c2cc(S(C)(=O)=O)ccc2OCC2CCCC2)c2cc[nH]c2c1=O` [Example 214, 4-[2-(cyclopentylmethoxy)-5-(methylsulfonyl)phenyl]-6-methyl-1,6-dihydro-7H-pyrrolo[2,3-c]pyridin-7-one], the Ki in data set [1] is 1.7 nM; in data set [2] it was 2.4 nM. Also, the half-life at 0.5 μM in data set [3] was 27 min; in data set [4], 9 min; in data set [6] it was 8 min. In addition, the EC50 in data set [5] turned out to be 10.5 nM.
Turning to `Cn1cc(-c2cc(S(C)(=O)=O)ccc2Oc2ccc(F)cc2F)c2cc(CNc3ccccc3)[nH]c2c1=O` [Example 282, 4-[2-(2,4-difluorophenoxy)-5-(methylsulfonyl)phenyl]-6-methyl-2-[(phenylamino)methyl]-1,6-dihydro-7H-pyrrolo[2,3-c]pyridin-7-one], the Ki in data set [1] was found to be 72.3 nM; in data set [2], 17.3 nM. The values for the half-life at 0.5 μM in data set [3], in data set [4] and in data set [6] were 9 min, 21 min and 7 min, respectively. In addition, the EC50 in data set [5] is 204 nM.
As to `Cn1cc(-c2cc(S(C)(=O)=O)ccc2Oc2ccc(CC(N)=O)cc2)c2cc[nH]c2c1=O` [Example 165, 2-{4-[2-(6-methyl-7-oxo-6,7-dihydro-1H-pyrrolo[2,3-c]pyridin-4-yl)-4-(methylsulfonyl)phenoxy]phenyl}acetamide], the inhibition constant (Ki) in data set [1] amounted to 2.2 nM; in data set [2], 5 nM. The values for the half-life at 0.5 μM in data set [3], in data set [4] and in data set [6] were above 120 min, 111 min and 27 min, respectively. Moreover, the EC50 in data set [5] amounted to 104 nM.
For the compound `CC(C)S(=O)(=O)c1ccc(Oc2ccc(F)cc2F)c(-c2cn(C)c(=O)c3[nH]ccc23)c1` [Example 271, 4-[2-(2,4-difluorophenoxy)-5-(propan-2-ylsulfonyl)phenyl]-6-methyl-1,6-dihydro-7H-pyrrolo[2,3-c]pyridin-7-one], the inhibition constant (Ki) in data set [1] was 1.9 nM; in data set [2], 2.9 nM. The figures for the half-life at 0.5 μM in data set [3], in data set [4] and in data set [6] were 23 min, 12 min and 11 min, respectively. The EC50 in data set [5] stood at 21.3 nM.
In the case of `CCS(=O)(=O)Nc1ccc(OC2CCOCC2)c(-c2cn(C)c(=O)c3[nH]ccc23)c1` [Example 109, N-[3-(6-methyl-7-oxo-6,7-dihydro-1H-pyrrolo[2,3-c]pyridin-4-yl)-4-(tetrahydro-2H-pyran-4-yloxy)phenyl]ethanesulfonamide], the Ki in data set [1] was 3.4 nM; in data set [2] it was 0.72 nM. For the same compound, the half-life at 0.5 μM in data set [3] was 71 min; in data set [4], 61 min; in data set [6] it was above 120 min. Further, in data set [5], the EC50 was determined as 32 nM.
For the compound `Cn1cc(-c2cc(C(=O)NCC3CCCO3)ccc2Oc2ccccc2)c2cc[nH]c2c1=O` (stereo not drawn) [Example 14, 3-(6-methyl-7-oxo-6,7-dihydro-1H-pyrrolo[2,3-c]pyridin-4-yl)-4-phenoxy-N-(tetrahydrofuran-2-ylmethyl)benzamide], the inhibition constant Ki is 12.3 nM in data set [1] and 5.5 nM in data set [2]. In addition, the values for the half-life at 0.5 μM in data set [3], in data set [4] and in data set [6] were 37 min, 6 min and 8 min, respectively. The EC50 in data set [5] is 170 nM.
For the compound `CCCS(=O)(=O)Nc1ccc(Oc2ccc(C#N)cc2)c(-c2cn(C)c(=O)c3[nH]ccc23)c1` [Example 93, N-[4-(4-cyanophenoxy)-3-(6-methyl-7-oxo-6,7-dihydro-1H-pyrrolo[2,3-c]pyridin-4-yl)phenyl]propane-1-sulfonamide], the inhibition constant Ki in data set [1] was 32.2 nM; in data set [2] it was 7.6 nM. Further, the results for the half-life at 0.5 μM in data set [3], in data set [4] and in data set [6] were 54 min, 102 min and 25 min, respectively. Moreover, the EC50 in data set [5] was 120 nM.
With `Cc1ccc(Oc2ccc(S(C)(=O)=O)cc2-c2cn(C)c(=O)c3[nH]ccc23)cc1` [Example 177, 6-methyl-4-[2-(4-methylphenoxy)-5-(methylsulfonyl)phenyl]-1,6-dihydro-7H-pyrrolo[2,3-c]pyridin-7-one], the Ki in data set [1] was 4.4 nM; in data set [2], 11.3 nM. Also, the half-life at 0.5 μM in data set [3] is 16 min; in data set [4] it was 6 min; in data set [6], 18 min. The EC50 in data set [5] amounted to 53.5 nM.
With `CN(c1ccc(Oc2ccccc2)c(-c2cn(C)c(=O)c3[nH]ccc23)c1)S(C)(=O)=O` [Example 8, N-methyl-N-[3-(6-methyl-7-oxo-6,7-dihydro-1H-pyrrolo[2,3-c]pyridin-4-yl)-4-phenoxyphenyl]methanesulfonamide], the inhibition constant (Ki) in data set [1] came out at 3.9 nM; in data set [2], 2.6 nM. In addition, the values for the half-life at 0.5 μM in data set [3] and in data set [6] were 19 min and 9 min, respectively. For the same compound, the “Stability in rat liver microsomes (t1/2 in minutes)” value in data set [4] ([…] microsomal protein) came out at 1 min. Moreover, in data set [5], the EC50 amounted to 24.4 nM.
Regarding `Cn1cc(-c2cc(S(C)(=O)=O)ccc2OC2CCC2)c2cc[nH]c2c1=O` [Example 213, 4-[2-(cyclobutyloxy)-5-(methylsulfonyl)phenyl]-6-methyl-1,6-dihydro-7H-pyrrolo[2,3-c]pyridin-7-one], the Ki worked out at 4.8 nM in data set [1] and 3.2 nM in data set [2]. The values for the half-life at 0.5 μM in data set [3], in data set [4] and in data set [6] were 79 min, 38 min and 89 min, respectively. Further, the EC50 in data set [5] was determined as 28.7 nM.
For the compound `Cn1cc(-c2cc(S(C)(=O)=O)ccc2NCC2CCOC2)c2cc[nH]c2c1=O` (stereo not drawn) [Example 201, 6-methyl-4-{5-(methylsulfonyl)-2-[(tetrahydrofuran-3-ylmethyl)amino]phenyl}-1,6-dihydro-7H-pyrrolo[2,3-c]pyridin-7-one], the Ki in data set [1] came to 40.7 nM; in data set [2], 10.2 nM. Moreover, the half-life at 0.5 μM in data set [3] was 56 min; in data set [4] it was 117 min; in data set [6], above 120 min. Besides, in data set [5], the EC50 is 135 nM.
Consider `CCS(=O)(=O)Nc1ccc(Oc2ccc(F)cc2F)c(-c2cn(C)c(=O)c3[nH]cc(CN4CCN(C)CC4)c23)c1` [Example 351, N-[4-(2,4-difluorophenoxy)-3-{6-methyl-3-[(4-methylpiperazin-1-yl)methyl]-7-oxo-6,7-dihydro-1H-pyrrolo[2,3-c]pyridin-4-yl}phenyl]ethanesulfonamide], for which the Ki in data set [1] stood at 153 nM; in data set [2] it was 223 nM. The half-life at 0.5 μM in data set [3] stood at 76 min; in data set [4], 66 min; in data set [6], 30 min. In data set [5], the EC50 amounted to 1100 nM.
In the case of `Cn1cc(-c2cc(N3CCCS3(=O)=O)ccc2Oc2ccc(F)cc2F)c2cc[nH]c2c1=O` [Example 43, 4-[2-(2,4-difluorophenoxy)-5-(1,1-dioxido-1,2-thiazolidin-2-yl)phenyl]-6-methyl-1,6-dihydro-7H-pyrrolo[2,3-c]pyridin-7-one], the Ki came out at 1.2 nM in data set [1] and 1.7 nM in data set [2]. In addition, the half-life at 0.5 μM in data set [3] was 34.9 min; in data set [4] it was 2 min; in data set [6], 5 min. Besides, the EC50 in data set [5] was determined as 16.9 nM.
With `CN(C)C(=O)Cc1ccc(OCc2ccccc2)c(-c2cn(C)c(=O)c3[nH]ccc23)c1` [Example 47, 2-[4-(benzyloxy)-3-(6-methyl-7-oxo-6,7-dihydro-1H-pyrrolo[2,3-c]pyridin-4-yl)phenyl]-N,N-dimethylacetamide], the results for the Ki in data set [1] and in data set [2] were 205 nM and 235 nM, respectively. In addition, the half-life at 0.5 μM in data set [3] was 8 min; in data set [4], 3 min; in data set [6], 5 min. The EC50 in data set [5] was 1100 nM.
